Assay [1] deals with IL-2 in Jurkat (ATCC, clone E6.1) cells stimulated with anti-CD3/28/2. As to the kind of experiment: Jurkat IL-2 Assay. Format: cell-based. The settings on record: Homo sapiens. On the procedure: Inhibition was determined in a cell-based assay using Jurkat (ATCC, clone E6.1), an immortalized T-cell line, exposed to a dose response of compound and assessed for viability, and Il-2 inhibition by ELISA. Cells were cultured in RPMI/10% FBS (Invitrogen 11875093, Atlanta Biologicals S12450H), maintained below 3E6/mL and only used in assays while below passage 25. Compounds were stamped by ECHO onto 384w plates (PerkinElmer Culturplate, 6007680). The cells were plated in fresh media on top of compound and incubated for 30 minutes before stimulation with soluble anti-CD3/28/2 (Stemcell, 10970) for 24 hours. Supernatant was collected and assessed for Il-2 (MSD, 384w, L21SA-1). To assess viability of cells treated with compound, cells were lysed with CTG reagent (Promega, G7570), and measured by luminometer. […] IC50s calculated using 4-parameter fit in GraphPad Prism.
In this table, “A” indicates IC50 of less than 0.1 μM; “B” indicates IC50 from 0.1 μM up to 1 μM; and “C” indicates IC50 of greater than 1 μM. “N/A” indicates not tested. For a compound that was tested in more than one experiment, the result shown represents the mean value.

For the next assay, the target named is full length MALT1 (Homo sapiens (Human), UniProt Q9UDY8). As to the kind of experiment: MALT1 Biochemical Assay. The settings on record: 15 nM enzyme, 30 μM peptide substrate Ac-Leu-Arg-Ser-Arg-Rh110-dPro, 30 min pre-incubation, 60 min reaction; mean value if tested more than once. On the procedure: Inhibitor potency was evaluated by measuring enzymatic activity of full length MALT1 at varying concentrations of compound. The enzymatic assay consists of a single substrate reaction that monitors the release of a fluorescent dye upon cleavage of the peptide substrate. […] The assay buffer consists of 50 mM Hepes, pH 7.5, 0.8 M sodium citrate, 1 mM DTT, 0.004% tween-20, and 0.005% bovine serum albumin (BSA). […] The reaction was quenched after 60 minutes with the addition of iodoacetate at a final concentration of 10 mM. Total fluorescence was measured using an Envision (PerkinElmer) with fluorescence excitation at 485 nm and emission at […].
For potency determination, 1 μL of serially diluted compound (in 100% DMSO) was pre-incubated with 40 μL of enzyme for 30 minutes. The reaction was initiated with the addition of 10 μL of peptide substrate. The relative fluorescence units were transformed to percent inhibition by using 0% and 100% inhibition controls as reference. […] IC50 values were calculated by fitting the concentration-response curves to a four-parameter logistic equation in GraphPad Prism.

[2] abbreviates: IL-2 inhibition, Jurkat cells, 30 min compound then anti-CD3/28/2 stimulation for 24 hours, mean value if tested more than once, read-out: IC50.

Structures can show the parent of a compound that is named as a salt. Where two headings read alike, the source gives them in different places.

full length MALT1, sequence (Q9UDY8 whole entry): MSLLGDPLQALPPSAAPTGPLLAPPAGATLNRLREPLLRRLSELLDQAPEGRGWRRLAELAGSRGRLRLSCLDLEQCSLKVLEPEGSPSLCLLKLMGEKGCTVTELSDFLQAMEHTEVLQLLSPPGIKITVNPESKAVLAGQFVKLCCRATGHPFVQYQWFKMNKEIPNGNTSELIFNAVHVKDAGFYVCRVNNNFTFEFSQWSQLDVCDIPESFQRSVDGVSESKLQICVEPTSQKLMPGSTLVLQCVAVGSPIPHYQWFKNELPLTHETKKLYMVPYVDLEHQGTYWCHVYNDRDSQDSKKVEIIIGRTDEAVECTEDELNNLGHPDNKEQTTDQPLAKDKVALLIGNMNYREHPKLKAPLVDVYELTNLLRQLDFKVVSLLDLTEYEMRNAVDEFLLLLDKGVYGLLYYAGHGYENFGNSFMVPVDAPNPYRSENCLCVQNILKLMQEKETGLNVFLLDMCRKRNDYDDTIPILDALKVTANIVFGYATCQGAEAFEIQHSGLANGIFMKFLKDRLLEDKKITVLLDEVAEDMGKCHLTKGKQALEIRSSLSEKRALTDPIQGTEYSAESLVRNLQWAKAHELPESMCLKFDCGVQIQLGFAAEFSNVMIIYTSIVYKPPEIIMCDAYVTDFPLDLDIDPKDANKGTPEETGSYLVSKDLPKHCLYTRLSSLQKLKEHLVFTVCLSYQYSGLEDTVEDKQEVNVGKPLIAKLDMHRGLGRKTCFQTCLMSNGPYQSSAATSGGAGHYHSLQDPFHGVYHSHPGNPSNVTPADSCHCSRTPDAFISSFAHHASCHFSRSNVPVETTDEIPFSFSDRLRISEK

For orientation: IC50 means the concentration at which inhibition is half-maximal. For the compound `CO[C@@H](C)c1c(Nc2ccc([C@H](N(C)C(=O)C3CCC3)C(F)(F)F)cc2C)cnc2nc(Cl)nn12` [Compound 1.31, N-[(1S)-1-[4-({2-chloro-7-[(1S)-1-methoxyethyl]-[1,2,4]triazolo[1,5-a]pyrimidin-6-yl}amino)-3-methylphenyl]-2,2,2-trifluoroethyl]-N-methylcyclobutanecarboxamide], the IC50 (in assay [1] (setting [2]); against full length MALT1) was more than 1000 nM in each case.

Take `CO[C@@H](C)c1c(Nc2ccc([C@H](N(C)C(=O)C3CC3)C(F)(F)F)cc2C)cnc2nc(Cl)nn12` [Compound 1.32, N-[(1S)-1-[4-({2-chloro-7-[(1S)-1-methoxyethyl]-[1,2,4]triazolo[1,5-a]pyrimidin-6-yl}amino)-3-methylphenyl]-2,2,2-trifluoroethyl]-N-methylcyclopropanecarboxamide]: the IC50 in assay [1] (setting [2]) is more than 1000 nM; on full length MALT1 it was 100 to 1000 nM.

Take `CO[C@@H](C)c1c(Nc2ccc([C@H](N(C)C(=O)C3CCS(=O)(=O)CC3)C(F)(F)F)cc2C)cnc2nc(Cl)nn12` [Compound 1.33, N-[(1S)-1-[4-({2-chloro-7-[(1S)-1-methoxyethyl]-[1,2,4]triazolo[1,5-a]pyrimidin-6-yl}amino)-3-methylphenyl]-2,2,2-trifluoroethyl]-N-methyl-1,1-dioxo-1λ^6-thiane-4-carboxamide]: the IC50 in assay [1] (setting [2]) was more than 1000 nM; against full length MALT1, 100 to 1000 nM.

As for `CO[C@@H](C)c1c(Nc2ccc([C@H](N(C)C(=O)C3CCNCC3)C(F)(F)F)cc2)cnc2nc(Cl)nn12` [Compound 2.1, N—((S)-1-(4-((2-chloro-7-((S)-1-methoxyethyl)-[1,2,4]triazolo[1,5-a]pyrimidin-6-yl)amino)phenyl)-2,2,2-trifluoroethyl)-N-methylpiperidine-4-carboxamide trifluoroacetate], the 50% inhibitory concentration (IC50) (in assay [1] (Jurkat); at full length MALT1) was 100 to 1000 nM throughout.

Regarding `CO[C@@H](C)c1c(Nc2ccc([C@H](N(C)C(=O)C3CCCNC3)C(F)(F)F)cc2)cnc2nc(Cl)nn12` (stereo partly drawn) [Compound 2.2, N-[(1S)-1-[4-({2-chloro-7-[(1S)-1-methoxyethyl]-[1,2,4]triazolo[1,5-a]pyrimidin-6-yl}amino)phenyl]-2,2,2-trifluoroethyl]-N-methylpiperidine-3-carboxamide], the IC50 in assay [1] (setting [2]) was more than 1000 nM; on full length MALT1, 100 to 1000 nM.

With `CO[C@@H](C)c1c(Nc2ccc([C@H](N(C)C(=O)C3CCNC3)C(F)(F)F)cc2)cnc2nc(Cl)nn12` (stereo partly drawn) [Compound 2.3, N—((S)-1-(4-((2-chloro-7-((S)-1-methoxyethyl)-[1,2,4]triazolo[1,5-a]pyrimidin-6-yl)amino)phenyl)-2,2,2-trifluoroethyl)-N-methylpyrrolidine-3-carboxamide hydrochloride], the IC50 (in assay [1] (setting [2]); against full length MALT1) was 100 to 1000 nM throughout.

`CO[C@@H](C)c1c(Nc2ccc([C@H](N(C)C(=O)C3CCC(CN)CC3)C(F)(F)F)cc2)cnc2nc(Cl)nn12` (stereo partly drawn) [Compound 2.4, 4-(aminomethyl)-N-[(1S)-1-[4-({2-chloro-7-[(1S)-1-methoxyethyl]-[1,2,4]triazolo[1,5-a]pyrimidin-6-yl}amino)phenyl]-2,2,2-trifluoroethyl]-N-methylcyclohexane-1-carboxamide; Formic Acid]: the IC50 in assay [1] (setting [2]) was 100 to 1000 nM; against full length MALT1, less than 100 nM.

As for `CO[C@@H](C)c1c(Nc2ccc([C@H](N(C)C(=O)C3CCN(S(=O)(=O)C(C)C)CC3)C(F)(F)F)cc2)cnc2nc(Cl)nn12` [Compound 3.2, N-[(1S)-1-[4-({2-chloro-7-[(1S)-1-methoxyethyl]-[1,2,4]triazolo[1,5-a]pyrimidin-6-yl}amino)phenyl]-2,2,2-trifluoroethyl]-N-methyl-1-(propane-2-sulfonyl)piperidine-4-carboxamide], the IC50 in assay [1] (setting [2]) is 100 to 1000 nM; on full length MALT1 it was less than 100 nM.

Consider `COC(=O)N1CCC(C(=O)N(C)[C@@H](c2ccc(Nc3cnc4nc(Cl)nn4c3[C@H](C)OC)cc2)C(F)(F)F)CC1` [Compound 3.3, methyl 4-{[(1S)-1-[4-({2-chloro-7-[(1S)-1-methoxyethyl]-[1,2,4]triazolo[1,5-a]pyrimidin-6-yl}amino)phenyl]-2,2,2-trifluoroethyl](methyl)carbamoyl}piperidine-1-carboxylate], for which the IC50 in assay [1] (setting [2]) is 100 to 1000 nM; on full length MALT1, less than 100 nM.

As for `CO[C@@H](C)c1c(Nc2ccc([C@H](N(C)C(=O)C3CCCN(C(C)=O)C3)C(F)(F)F)cc2)cnc2nc(Cl)nn12` (stereo partly drawn) [Compound 3.5, 1-acetyl-N-[(1S)-1-[4-({2-chloro-7-[(1S)-1-methoxyethyl]-[1,2,4]triazolo[1,5-a]pyrimidin-6-yl}amino)phenyl]-2,2,2-trifluoroethyl]-N-methylpiperidine-3-carboxamide], the IC50 was 100 to 1000 nM in assay [1] (setting [2]) and less than 100 nM on full length MALT1.

Turning to `CNC(=O)N1CCCC(C(=O)N(C)[C@@H](c2ccc(Nc3cnc4nc(Cl)nn4c3[C@H](C)OC)cc2)C(F)(F)F)C1` (stereo partly drawn) [Compound 3.6, N3-[(1S)-1-[4-({2-chloro-7-[(1S)-1-methoxyethyl]-[1,2,4]triazolo[1,5-a]pyrimidin-6-yl}amino)phenyl]-2,2,2-trifluoroethyl]-N1,N3-dimethylpiperidine 1,3-dicarboxamide], the IC50 is more than 1000 nM in assay [1] (setting [2]) and 100 to 1000 nM at full length MALT1.

On to `CO[C@@H](C)c1c(Nc2ccc([C@H](N(C)C(=O)C3CCCN(S(C)(=O)=O)C3)C(F)(F)F)cc2)cnc2nc(Cl)nn12` (stereo partly drawn) [Compound 3.7, N-[(1S)-1-[4-({2-chloro-7-[(1S)-1-methoxyethyl]-[1,2,4]triazolo[1,5-a]pyrimidin-6-yl}amino)phenyl]-2,2,2-trifluoroethyl]-1-methanesulfonyl-N-methylpiperidine-3-carboxamide], for which the IC50 in assay [1] (setting [2]) was more than 1000 nM; on full length MALT1, 100 to 1000 nM.

As to `CO[C@@H](C)c1c(Nc2ccc([C@H](N(C)C(=O)C3CCN(C(C)=O)C3)C(F)(F)F)cc2)cnc2nc(Cl)nn12` (stereo partly drawn) [Compound 3.8, 1-acetyl-N-[(1S)-1-[4-({2-chloro-7-[(1S)-1-methoxyethyl]-[1,2,4]triazolo[1,5-a]pyrimidin-6-yl}amino)phenyl]-2,2,2-trifluoroethyl]-N-methylpyrrolidine-3-carboxamide], the figures for the IC50 (in assay [1] (setting [2]); on full length MALT1) were more than 1000 nM and 100 to 1000 nM, respectively.

For the compound `CNC(=O)N1CCC(C(=O)N(C)[C@@H](c2ccc(Nc3cnc4nc(Cl)nn4c3[C@H](C)OC)cc2)C(F)(F)F)C1` (stereo partly drawn) [Compound 3.9, N3-[(1S)-1-[4-({2-chloro-7-[(1S)-1-methoxyethyl]-[1,2,4]triazolo[1,5-a]pyrimidin-6-yl}amino)phenyl]-2,2,2-trifluoroethyl]-N1,N3-dimethylpyrrolidine-1,3-dicarboxamide], the values for the IC50 (in assay [1] (setting [2]); on full length MALT1) were 100 to 1000 nM and less than 100 nM, respectively.

Turning to `CO[C@@H](C)c1c(Nc2ccc([C@H](N(C)C(=O)C3CCC(CNC(C)=O)CC3)C(F)(F)F)cc2)cnc2nc(Cl)nn12` (stereo partly drawn) [Compound 3.11, N-[(1S)-1-[4-({2-chloro-7-[(1S)-1-methoxyethyl]-[1,2,4]triazolo[1,5-a]pyrimidin-6-yl}amino)phenyl]-2,2,2-trifluoroethyl]-4-(acetamidomethyl)-N-methylcyclohexane-1-carboxamide], the IC50 in assay [1] (setting [2]) is 100 to 1000 nM; against full length MALT1, less than 100 nM.

Turning to `COC(=O)NCC1CCC(C(=O)N(C)[C@@H](c2ccc(Nc3cnc4nc(Cl)nn4c3[C@H](C)OC)cc2)C(F)(F)F)CC1` (stereo partly drawn) [Compound 3.12, methyl N-[(4-{[(1S)-1-[4-({2-chloro-7-[(1S)-1-methoxyethyl]-[1,2,4]triazolo[1,5-a]pyrimidin-6-yl}amino)phenyl]-2,2,2-trifluoroethyl](methyl)carbamoyl}cyclohexyl)methyl]carbamate], the IC50 in assay [1] (setting [2]) is 100 to 1000 nM; against full length MALT1, less than 100 nM.

For the compound `CO[C@@H](C)c1c(Nc2ccc([C@H](N(C)C(=O)C3CCCN(C(=O)C4CC4)C3)C(F)(F)F)cc2)cnc2nc(Cl)nn12` (stereo partly drawn) [Compound 4.2, N-[(1S)-1-[4-({2-chloro-7-[(1S)-1-methoxyethyl]-[1,2,4]triazolo[1,5-a]pyrimidin-6-yl}amino)phenyl]-2,2,2-trifluoroethyl]-1-cyclopropanecarbonyl-N-methylpiperidine-3-carboxamide], the IC50 (in assay [1] (setting [2]); at full length MALT1) was 100 to 1000 nM each time.

The values are drawn from patent publication US20230391781A1, “MALT1 MODULATORS AND USES THEREOF” (Rheos Medicines, Inc., priority 2020, published 2023).
